The text below walks through data of BindingDB's records for doi:10.1016/j.bmcl.2009.01.008 (Pfizer, 2009).

Several values for one entry are separate records, joined by “and”; a condition that tells them apart may be missing. Equal entries are not always repeated.

The IC50 is the point on the concentration scale where inhibition reaches its midpoint.

This test in a line: Antagonist activity at human recombinant CCR5 expressed in human HeLa-P4 cells assessed as inhibition of human HeLa-P4 cells binding to HIV1 gp160 expressing CHO cells by cell-cell fusion assay.
`Cc1nnc(C(C)C)n1C1CCN(C(C)C[C@H](NC(=O)C2CC(F)(F)C2)c2ccccc2)CC1` (mixture of isomers): the concentration for half-maximal inhibition (IC50) was 1.3 nM and 0.38 nM.

In the case of `Cc1nnc(C(C)C)n1C1CCN(C(C)C[C@H](NC(=O)C2CCS(=O)(=O)CC2)c2ccccc2)CC1` (mixture of isomers) [(+/-)-1,1-Dioxo-hexahydro-1lambda*6*-thiopyran-4-carboxylic acid{(S)-3-[4-(3-isopropyl-5-methyl-[1,2,4]triazol-4-yl)-piperidin-1-yl]-1-phenyl-butyl}-amide], the IC50 was determined as 6.12 nM.

Regarding `Cc1nnc(C(C)C)n1C1CCN(C(C)C[C@H](NC(=O)C2CC[S+]([O-])CC2)c2ccccc2)CC1` (mixture of isomers) [(+/-)-1-Oxo-hexahydro-1lambda*4*-thiopyran-4-carboxylic acid{(S)-3-[4-(3-isopropyl-5-methyl-[1,2,4]triazol-4-yl)-piperidin-1-yl]-1-phenyl-butyl}-amide], the concentration for half-maximal inhibition (IC50) was 4.87 nM.

Turning to `CC(=O)N1CCC(C(=O)N[C@@H](CC(C)N2CCC(n3c(C)nnc3C(C)C)CC2)c2ccccc2)CC1` (mixture of isomers) [(+/-)-1-acetyl-N-((1S)-3-(4-(3-isopropyl-5-methyl-4H-1,2,4-triazol-4-yl)piperidin-1-yl)-1-phenylbutyl)piperidine-4-carboxamide], the IC50 turned out to be 28.7 nM.

Consider `Cc1nnc(C(C)C)n1C1CCN(C(C)C[C@H](NC(=O)CC2CC2)c2ccccc2)CC1` (mixture of isomers) [(+/-)-2-cyclopropyl-N-((1S)-3-(4-(3-isopropyl-5-methyl-4H-1,2,4-triazol-4-yl)piperidin-1-yl)-1-phenylbutyl)acetamide], for which the IC50 is 3.16 nM.

Take `Cc1nnc(C(C)C)n1C1CCN(C(C)C[C@H](NC(=O)CC(F)(F)F)c2ccccc2)CC1` (mixture of isomers) [(+/-)-3,3,3-trifluoro-N-((1S)-3-(4-(3-isopropyl-5-methyl-4H-1,2,4-triazol-4-yl)piperidin-1-yl)-1-phenylbutyl)propanamide]: the IC50 was 85.3 nM.

`Cc1nnc(C(C)C)n1C1CCN(C(C)C[C@H](NC(=O)COCC(F)(F)F)c2ccccc2)CC1` (mixture of isomers) [(+/-)-N-((1S)-3-(4-(3-isopropyl-5-methyl-4H-1,2,4-triazol-4-yl)piperidin-1-yl)-1-phenylbutyl)-2-(2,2,2-trifluoroethoxy)acetamide]: the half-inhibitory concentration (IC50) was 52.8 nM.

In the case of `Cc1nnc(C(C)C)n1C1CCN(C(C)C[C@H](NC(=O)N2CCN(C)CC2)c2ccccc2)CC1` (mixture of isomers) [(+/-)-N-((1S)-3-(4-(3-isopropyl-5-methyl-4H-1,2,4-triazol-4-yl)piperidin-1-yl)-1-phenylbutyl)-4-methylpiperazine-1-carboxamide], the half-inhibitory concentration (IC50) worked out at 187 nM.

Take `CC(=O)N[C@@H](CC(C)N1CCC(n2c(C)nnc2C(C)C)CC1)c1ccccc1` (mixture of isomers) [(+/-)-N-((1S)-3-(4-(3-isopropyl-5-methyl-4H-1,2,4-triazol-4-yl)piperidin-1-yl)-1-phenylbutyl)acetamide]: the half-maximal inhibitory concentration (IC50) turned out to be 89.2 nM.

For the compound `Cc1nnc(C(C)C)n1C1CCN(C(C)C[C@H](NC(=O)C2CCCCC2)c2ccccc2)CC1` (mixture of isomers) [(+/-)-N-((1S)-3-(4-(3-isopropyl-5-methyl-4H-1,2,4-triazol-4-yl)piperidin-1-yl)-1-phenylbutyl)cyclohexanecarboxamide], the IC50 came out at 0.513 nM.

For `Cc1nnc(C(C)C)n1C1CCN(C(C)C[C@H](NC(=O)C2CCCC2)c2ccccc2)CC1` (mixture of isomers) [(+/-)-N-((1S)-3-(4-(3-isopropyl-5-methyl-4H-1,2,4-triazol-4-yl)piperidin-1-yl)-1-phenylbutyl)cyclopentanecarboxamide], the IC50 turned out to be 0.137 nM.

With `Cc1nnc(C(C)C)n1C1CCN(C(C)C[C@H](NC(=O)C2CC2)c2ccccc2)CC1` (mixture of isomers) [(+/-)-N-((1S)-3-(4-(3-isopropyl-5-methyl-4H-1,2,4-triazol-4-yl)piperidin-1-yl)-1-phenylbutyl)cyclopropanecarboxamide], the IC50 stood at 3.93 nM.

Turning to `Cc1nnc(C(C)C)n1C1CCN(C(C)C[C@H](NC(=O)C(C)C)c2ccccc2)CC1` (mixture of isomers) [(+/-)-N-((1S)-3-(4-(3-isopropyl-5-methyl-4H-1,2,4-triazol-4-yl)piperidin-1-yl)-1-phenylbutyl)isobutyramide], the 50% inhibitory concentration (IC50) stood at 3.11 nM.

Turning to `Cc1nnc(C(C)C)n1C1CCN(C(C)C[C@H](NC(=O)N2CCOCC2)c2ccccc2)CC1` (mixture of isomers) [(+/-)-N-((1S)-3-(4-(3-isopropyl-5-methyl-4H-1,2,4-triazol-4-yl)piperidin-1-yl)-1-phenylbutyl)morpholine-4-carboxamide], the half-inhibitory concentration (IC50) is 176 nM.

Turning to `Cc1nnc(C(C)C)n1C1CCN(C(C)C[C@H](NC(=O)C2CCOCC2)c2ccccc2)CC1` (mixture of isomers) [(+/-)-N-((1S)-3-(4-(3-isopropyl-5-methyl-4H-1,2,4-triazol-4-yl)piperidin-1-yl)-1-phenylbutyl)tetrahydro-2H-pyran-4-carboxamide], the IC50 came out at 164 nM.

Take `COC(=O)N[C@@H](CC(C)N1CCC(n2c(C)nnc2C(C)C)CC1)c1ccccc1` (mixture of isomers) [(+/-)-methyl(1S)-3-(4-(3-isopropyl-5-methyl-4H-1,2,4-triazol-4-yl)piperidin-1-yl)-1-phenylbutylcarbamate]: the IC50 turned out to be 315 nM.

Regarding `Cc1nnc(C(C)C)n1C1CCN([C@H](C)C[C@H](NC(=O)C2CC(F)(F)C2)c2ccccc2)CC1` [3,3-difluoro-N-((1S,3R)-3-(4-(3-isopropyl-5-methyl-4H-1,2,4-triazol-4-yl)piperidin-1-yl)-1-phenylbutyl)cyclobutanecarboxamide], the half-maximal inhibitory concentration (IC50) turned out to be 0.48 nM.

Take `Cc1nc(C(C)C)n(C2CC3CCC(C2)N3CC[C@H](NC(=O)C2CCC(F)(F)CC2)c2ccccc2)n1` (stereo partly drawn) [4,4-difluoro-N-((1S)-3-(3-(5-isopropyl-3-methyl-1H-1,2,4-triazol-1-yl)-8-azabicyclo[3.2.1]octan-8-yl)-1-phenylpropyl)cyclohexanecarboxamide]: the IC50 is 1.4 nM.

For the compound `Cc1nnc(C(C)C)n1C1CCN([C@@H](C)C[C@H](NC(=O)C2CCC(F)(F)CC2)c2ccccc2)CC1` [4,4-difluoro-N-((1S,3S)-3-(4-(3-isopropyl-5-methyl-4H-1,2,4-triazol-4-yl)piperidin-1-yl)-1-phenylbutyl)cyclohexanecarboxamide], the half-inhibitory concentration (IC50) was determined as 49.9 nM.
